Like-named read-outs stand apart in the source and are kept apart here.
Columns and labels:
[1] = test system: L. donovani intramacrophage amastigotes; experiment: L. donovani intramacrophage compound sensitivity assay; assay type: cell-based; conditions: Leishmania donovani, read-out: Intra-macrophage EC50
Experimental: (§1) L. donovani intramacrophage ([7]), HepG2 ([55]), T. brucei ([56]), and L. donovani promastigote ([57]) compound sensitivity assays were carried out as described previously. Human HepG2 and THP-1 cells used in these assays were provided by the ATCC. Data were processed by using GRAFIT (version 5.0.4; Erithacus Software) and fitted to a 2-parameter equation to obtain the effective concentration inhibiting growth by 50% (EC50). Data are presented as the means of results from at least two independent experiments.

[2] = test system: T. brucei bloodstream forms; experiment: microbe, parasite or virus in culture
Experimental: The clonal Leishmania donovani cell line LdBOB (derived from MHOM/SD/62/1S-CL2D) was grown as promastigotes at 28°C, as described previously ([53]). Bloodstream-form T. brucei MiTat 1.2 clone 221a and its derived subline, 2T1, were cultured at 37°C in the presence of 5% CO2 in HMI9-T medium, as described previously ([54]). The human carcinoma HepG2 cell line was grown at 37°C with 5% CO2 in minimal Eagle's medium (MEM) with GlutaMAX (1×; Sigma-Aldrich), nonessential amino acids (Sigma-Aldrich), and 10% FBS. Human HepG2 and THP-1 cells used in this study were ethically sourced from the ATCC.
as §1
In the first instance, the maximum tolerated concentrations of ZnCl2, CaCl2, CuCl2, MgCl2, MnCl2, and FeCl2 were determined for each cell type. […] Standard drug sensitivity assays were carried out (as described above) for each cell type with compounds 1, 2, and 3 in the presence and absence of the maximum tolerated concentration of metal salt.

THP-1 cells = experiment: THP-1 cell sensitivity; assay type: cell-based; conditions: Homo sapiens
Experimental: as §1

[3] = test system: Tb927.11.15050 knockdown bloodstream trypanosomes; experiment: Drug sensitivity of Tb927.11.15050 RNAi knockdown trypanosomes; assay type: cell-based, Trypanosoma brucei; conditions: induced vs uninduced RNAi knockdown
From the text: Stem-loop RNAi constructs were assembled as described previously ([54], [62]). PCR primers were designed by using RNAit software ([63]). For HL2 (Tb927.11.15050), primers HL2FW and HL2RV were used to generate a 533-bp gene fragment, and for HL3 (Tb927.11.1910), primers HL3FW and HL3RV were used to generate a 513-bp gene fragment. The accuracy of all assembled constructs was verified by sequencing. Assembled constructs were linearized by using AscI prior to transfection into bloodstream T. brucei 2T1 parasites ([62]). In addition to phleomycin (1 μg ml^−1), trypanosomes maintaining successfully integrated vectors were selected using hygromycin (2.5 μg ml^−1) and confirmed to be puromycin (2 μg ml^−1) resistant. To generate C-terminal 12×Myc tagging vectors for Tb927.11.15050 (Myc1) and Tb927.11.1910 (Myc2), primers Myc1FW and Myc1RV and primers Myc2FW and Myc2RV were used to generate 924-bp and 1,095-bp fragments, respectively. Fragments were inserted into the pNATx^12xMyc construct ([54]) via HindIII and XbaI restriction sites. The accuracy of the assembled constructs was verified by sequencing, and the constructs were linearized with the restriction endonuclease MfeI prior to transfection into the above-described HL2 and HL3 trypanosomes. Trypanosomes maintaining successfully integrated vectors were selected with blasticidin (1 μg ml^−1).

[4] = test system: L. donovani promastigotes; experiment: Measurement of 8-HNT compound uptake by UPLC-MS/MS; assay type: cell-based, Leishmania donovani; conditions: 5 μM, 30 min
Experimental: Triplicate samples of the culture (2 × 10^7 cells; 1 ml) were harvested by centrifugation at 16,000 × g for 5 min. The supernatant (200 μl) was collected from each centrifuged sample, transferred to a fresh Eppendorf tube, and terminated by the addition of 400 μl acetonitrile (supernatant fraction). The remaining supernatant was discarded, and acetonitrile (60 μl) was added to each pellet fraction. Finally, 400 μl acetonitrile was added to 200 μl of culture (equivalent of 4 × 10^6 cells) (total fraction). All fractions were then centrifuged at 16,000 × g for 10 min and diluted as required with MilliQ water. All samples were analyzed in triplicate on a Waters Acquity UPLC instrument coupled to a Waters micro TQs mass spectrometer. Chromatographic separation was achieved by using a Waters BEH (bridged ethylene hybrid) C18 column (1.7-μm particle size, 2.1 by 50 mm), with a flow rate of 0.6 ml min^−1, an injection volume of 0.2 μl, and the following 2-min gradient: 95% mobile phase A initially, with holding for 0.3 min before decreasing to 5% mobile phase A over the next minute and holding for a further 0.49 min before returning to 95% mobile phase A. Mobile phase A was water plus 0.1% formic acid, and mobile phase B was methanol plus 0.1% formic acid. […]

[5] = Spectrophotometric UV-Vis titration and Job's plot of binding to divalent cations; assay type: physicochemical
Experimental: UV-visible (UV-Vis) titrations were carried out essentially as described previously ([65], [66]). Aliquots of metal divalent cations (concentrated stocks were made initially in water and then diluted in methanol) were added to a fixed concentration of 50 μM 8-HNT compound in methanol. After each aliquot addition, the incubation mixture was left to stabilize for 5 min at 25°C prior to scanning. Wavelength scanning was carried out at between 260 and 510 nm by using a UV-2401 PC UV-Vis spectrophotometer (Shimadzu). For Job's plot analyses ([66]), the combined concentration of 8-HNT and cation was fixed at 200 μM, and only the molar ratio of cation versus 8-HNT compound varied. Changes of the absorption at 475, 390, and 375 nm were indicative of cation complex formation with compounds 1 to 3, respectively. Specific absorbance at these wavelengths was determined and plotted against the molar ratio of compound to cation to determine complex stoichiometry ([66]).

Question: What does the source list for `Cc1nnc(-c2nc(NCc3ccc(Cl)cc3)c3cccnc3c2O)[nH]1` [Compound 1]?
Answer: EC50 [1]: 2100 nM; Shift (fold) ([2]; CaCl2 (3 mM) vs WT): 1.1 fold; Shift (fold) ([2]; CuCl2 (5 μM) vs WT): 1.1 fold; Shift (fold) ([2]; FeCl2 (10 μM) vs WT): 8.0 fold; Shift (fold) ([2]; FeCl2 (10 μM) vs WT, listed as compound 1): 8 fold; Shift (fold) ([2]; MgCl2 (1 mM) vs WT): 1.1 fold; Shift (fold) ([2]; MnCl2 (10 μM) vs WT): 1.0 fold; EC50 ([2]; Trypanosoma brucei, read-out: EC50, wild-type [WT] trypanosomes): 850 ± 50 nM; EC50 ([2]; Trypanosoma brucei, read-out: Mean EC50 ± SD, Plus cation, plus CaCl2 (3 mM)): 400 ± 100 nM; EC50 ([2]; Trypanosoma brucei, read-out: Mean EC50 ± SD, Plus cation, plus CuCl2 (5 μM)): 400 ± 5 nM; EC50 ([2]; Trypanosoma brucei, read-out: Mean EC50 ± SD, Plus cation, plus MgCl2 (1 mM)): 400 ± 30 nM; EC50 ([2]; Trypanosoma brucei, read-out: Mean EC50 ± SD, Plus cation, plus MnCl2 (10 μM)): 400 ± 20 nM; EC50 ([2]; Trypanosoma brucei, read-out: Mean EC50 ± SD, WT, absence of cation, CaCl2 experiment): 300 ± 800 nM; EC50 ([2]; Trypanosoma brucei, read-out: Mean EC50 ± SD, WT, absence of cation, CuCl2 experiment): 300 ± 80 nM; EC50 ([2]; Trypanosoma brucei, read-out: Mean EC50 ± SD, WT, absence of cation, FeCl2 experiment): 220 ± 10 nM; EC50 ([2]; Trypanosoma brucei, read-out: Mean EC50 ± SD, WT, absence of cation, MgCl2 experiment): 400 ± 10 nM; EC50 ([2]; Trypanosoma brucei, read-out: Mean EC50 ± SD, WT, absence of cation, MnCl2 experiment): 400 ± 10 nM; EC50 ([2]; Trypanosoma brucei, read-out: Mean EC50 ± SD, WT, absence of cation, ZnCl2 experiment): 360 ± 90 nM; EC50 ([2]; Trypanosoma brucei, read-out: T. brucei bsf EC50, bloodstream form (Fig. 1)): 320 nM; Shift (fold) ([2]; ZnCl2 (200 μM) vs WT): 8.0 fold; Shift (fold) ([2]; ZnCl2 (200 μM) vs WT, listed as compound 1): 8 fold; EC50 ([2]; read-out: Mean EC50 ± SD, WT, absence of cation, FeCl2 experiment): 200 ± 10 nM; EC50 ([2]; read-out: Mean EC50 ± SD, WT, absence of cation, ZnCl2 experiment): 350 ± 10 nM; EC50 (THP-1 cells): > 50000 nM; Increase in EC50 on knockdown of Tb927.11.15050 [3]: > 3 fold; Accumulation within cells relative to supernatant (equivalent Kp values) ([4]; 4°C): 29 ± 13 times; Accumulation within cells relative to supernatant (equivalent Kp values) ([4]; 37°C): 296 ± 69 times; Zn^2+ concentration at which binding is saturable ([5]; 50 μM compound, absorbance at 475 nm): 25 µM; Job's plot intercept, molar fraction (compound to Zn^2+) ([5]; combined concentration 200 μM in methanol, absorbance 475/390/375 nm): 0.34

Reference: publication PMC6105827, “Antitrypanosomal 8-Hydroxy-Naphthyridines Are Chelators of Divalent Transition Metals” (Antimicrobial Agents and Chemotherapy, 2018)
